Here are results for 25 compounds from patent publication US20230108906A1, “SUBSTITUTED BICYCLIC AND TRICYCLIC UREAS AND AMIDES, ANALOGUES THEREOF, AND METHODS USING SAME” (Arbutus Biopharma Corporation, priority 2019, published 2023).

The first test relates to HBV rcDNA in HepDE19 cells. Briefly: HepDE19 assay with bDNA quantitation of HBV rcDNA. It counts as cell-based, hepatitis B virus (HBV). The note with it: Hepatitis B virus, HepDE19, 168 h, inhibition of rcDNA formation in HepDE19 cells (HepG2 derived), Tet-free medium, 7 day incubation, Quantigene 2.0 bDNA readout, top concentration 25 μM; read-out: DE-19bDNA EC50. The essentials:
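HepDE19 cells (HepG2-derived, Tet-regulated HBV) switched to Tet-free medium, then treated 7 days at 37 °C with compound, 8-point titration from 25 μM, 0.5% DMSO. rcDNA quantified by bDNA with HBV probes; EC50/EC90 via 4-parameter fit. Viability (CC50) by CellTiter-Glo ATP on 5,000 cells/well after 4 days.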
The EC50 is the concentration at which the effect is half-maximal. In the case of `CN(C(=O)Nc1ccc(F)c(Cl)c1)C1CS(=O)(=O)Cc2[nH]c(=O)c3cc(F)ccc3c21` (single isomer, unassigned) [Compound 197, 3-(3-Chloro-4-fluorophenyl)-1-(8-fluoro-3,3-dioxido-6-oxo-1,4,5,6-tetrahydro-2H-thiopyrano[3,4-c]isoquinolin-1-yl)-1-methylurea], the EC50 was determined as 2.3 µM.

Take `CN(C(=O)Nc1ccc(F)c(Cl)c1)C1CS(=O)(=O)Cc2[nH]c(=O)c3cc(F)c(F)cc3c21` (single isomer, unassigned) [Compound 203, 3-(3-Chloro-4-fluorophenyl)-1-(8,9-difluoro-3,3-dioxido-6-oxo-1,4,5,6-tetrahydro-2H-thiopyrano[3,4-c]isoquinolin-1-yl)-1-methylurea]: the EC50 came out at 1.4 µM.

In the case of `CN(C(=O)Nc1ccc(F)c(C#N)c1)C1CS(=O)(=O)Cc2[nH]c(=O)c3cc(F)c(F)cc3c21` (single isomer, unassigned) [Compound 205, 3-(3-Cyano-4-fluorophenyl)-1-(8,9-difluoro-3,3-dioxido-6-oxo-1,4,5,6-tetrahydro-2H-thiopyrano[3,4-c]isoquinolin-1-yl)-1-methylurea], the EC50 was determined as 7.2 µM.

Staying with this test, now noted: inhibition of rcDNA formation in HepDE19 cells (HepG2 derived), Tet-free medium, 7 day incubation, Quantigene 2.0 bDNA readout, top concentration 25 μM; read-out: DE-19bDNA EC50.
Turning to `CN(C(=O)Nc1ccc(F)c(Cl)c1)C1CN(CCO)Cc2[nH]c(=O)c3cc(F)c(F)cc3c21` (single isomer, unassigned) [Compound 180, 3-(3-Chloro-4-fluorophenyl)-1-(8,9-difluoro-3-(2-hydroxyethyl)-6-oxo-1,2,3,4,5,6-hexahydrobenzo[c][1,7]naphthyridin-1-yl)-1-methylurea], the EC50 turned out to be 1.4 µM.

Take `CN(C(=O)Nc1ccc(F)c(C#N)c1)C1CN(CCO)Cc2[nH]c(=O)c3cc(F)c(F)cc3c21` (single isomer, unassigned) [Compound 181, 3-(3-Cyano-4-fluorophenyl)-1-(8,9-difluoro-3-(2-hydroxyethyl)-6-oxo-1,2,3,4,5,6-hexahydrobenzo[c][1,7]naphthyridin-1-yl)-1-methylurea]: the EC50 was not below 25 µM.

With `CN(C(=O)Nc1ccc(F)c(C#N)c1)C1CN(CCO)Cc2[nH]c(=O)c3cc(F)c(F)cc3c21` (single isomer, unassigned) [Compound 182, 3-(3-Cyano-4-fluorophenyl)-1-(8,9-difluoro-3-(2-hydroxyethyl)-6-oxo-1,2,3,4,5,6-hexahydrobenzo[c][1,7]naphthyridin-1-yl)-1-methylurea], the half-maximal effective concentration (EC50) came out at 4.9 µM.

Turning to `CN(C(=O)Nc1ccc(F)c(Cl)c1)C1CSCc2[nH]c(=O)c3cc(F)ccc3c21` (single isomer, unassigned) [Compound 183, 3-(3-Chloro-4-fluorophenyl)-1-(8-fluoro-6-oxo-1,4,5,6-tetrahydro-2H-thiopyrano[3,4-c]isoquinolin-1-yl)-1-methylurea], the EC50 amounted to 1.1 µM.

Regarding `CN(C(=O)Nc1ccc(F)c(Cl)c1)C1CSCc2[nH]c(=O)c3cc(F)ccc3c21` (single isomer, unassigned) [Compound 184, 3-(3-Chloro-4-fluorophenyl)-1-(8-fluoro-6-oxo-1,4,5,6-tetrahydro-2H-thiopyrano[3,4-c]isoquinoIin-1-yl)-1-methylurea], the EC50 is 0.03 µM.

Take `CN(C(=O)Nc1ccc(F)c(C#N)c1)C1CSCc2[nH]c(=O)c3cc(F)ccc3c21` (single isomer, unassigned) [Compound 185, 3-(3-Cyano-4-fluorophenyl)-1-(8-fluoro-6-oxo-1,4,5,6-tetrahydro-2H-thiopyrano[3,4-c]isoquinolin-1-yl)-1-methylurea]: the EC50 amounted to 3.3 µM.

As to `CN(C(=O)Nc1ccc(F)c(C#N)c1)C1CSCc2[nH]c(=O)c3cc(F)ccc3c21` (single isomer, unassigned) [Compound 186, 3-(3-Cyano-4-fluorophenyl)-1-(8-fluoro-6-oxo-1,4,5,6-tetrahydro-2H-thiopyrano[3,4-c]isoquinolin-1-yl)-1-methylurea], the EC50 turned out to be 0.06 µM.

Take `CN(C(=O)Nc1ccc(F)c(Cl)c1)C1CSCc2[nH]c(=O)c3cc(F)c(F)cc3c21` (single isomer, unassigned) [Compound 187, 3-(3-Chloro-4-fluorophenyl)-1-(8,9-difluoro-6-oxo-1,4,5,6-tetrahydro-2H-thiopyrano[3,4-c]isoquinolin-1-yl)-1-methylurea]: the EC50 worked out at 0.9 µM.

In the case of `CN(C(=O)Nc1ccc(F)c(Cl)c1)C1CSCc2[nH]c(=O)c3cc(F)c(F)cc3c21` (single isomer, unassigned) [Compound 188, 3-(3-Chloro-4-fluorophenyl)-1-(8,9-difluoro-6-oxo-1,4,5,6-tetrahydro-2H-thiopyrano[3,4-c]isoquinolin-1-yl)-1-methylurea], the EC50 is 0.02 µM.

Consider `CN(C(=O)Nc1ccc(F)c(C#N)c1)C1CSCc2[nH]c(=O)c3cc(F)c(F)cc3c21` (single isomer, unassigned) [Compound 189, 3-(3-Cyano-4-fluorophenyl)-1-(8,9-difluoro-6-oxo-1,4,5,6-tetrahydro-2H-thiopyrano[3,4-c]isoquinolin-1-yl)-1-methylurea], for which the EC50 was 0.88 µM.

Turning to `CN(C(=O)Nc1ccc(F)c(C#N)c1)C1CSCc2[nH]c(=O)c3cc(F)c(F)cc3c21` (single isomer, unassigned) [Compound 190, 3-(3-Cyano-4-fluorophenyl)-1-(8,9-difluoro-6-oxo-1,4,5,6-tetrahydro-2H-thiopyrano[3,4-c]isoquinolin-1-yl)-1-methylurea], the EC50 stood at 0.02 µM.

Take `CN(C(=O)Nc1ccc(F)c(F)c1)C1CNCc2[nH]c(=O)c3cc(F)c(F)cc3c21` (single isomer, unassigned) [Compound 191, 1-(8,9-Difluoro-6-oxo-1,2,3,4,5,6-hexahydrobenzo[c][1,7]naphthyridin-1-yl)-3-(3,4-difluorophenyl)-1-methylurea]: the EC50 was determined as 3 µM.

Regarding `CN(C(=O)Nc1ccc(F)c(F)c1)C1CNCc2[nH]c(=O)c3cc(F)c(F)cc3c21` (single isomer, unassigned) [Compound 192, 1-(8,9-Difluoro-6-oxo-1,2,3,4,5,6-hexahydrobenzo[c][1,7]naphthyridin-1-yl)-3-(3,4-difluorophenyl)-1-methylurea], the EC50 amounted to 0.04 µM.

As to `CN(C(=O)Nc1ccc(F)c(Cl)c1)C1C[S+]([O-])Cc2[nH]c(=O)c3cc(F)ccc3c21` (single isomer, unassigned) [Compound 194, 3-(3-Chloro-4-fluorophenyl)-1-(8-fluoro-3-oxido-6-oxo-1,4,5,6-tetrahydro-2H-thiopyrano[3,4-c]isoquinolin-1-yl)-1-methylurea], the EC50 is not below 25 µM.

In the case of `CN(C(=O)Nc1ccc(F)c(Cl)c1)C1C[S+]([O-])Cc2[nH]c(=O)c3cc(F)ccc3c21` (single isomer, unassigned) [Compound 195], the EC50 is 0.9 µM.

Consider `CN(C(=O)Nc1ccc(F)c(Cl)c1)C1C[S+]([O-])Cc2[nH]c(=O)c3cc(F)ccc3c21` (single isomer, unassigned) [Compound 196, 3-(3-Chloro-4-fluorophenyl)-1-(8-fluoro-3-oxido-6-oxo-1,4,5,6-tetrahydro-2H-thiopyrano[3,4-c]isoquinolin-1-yl)-1-methylurea], for which the EC50 came to 22 µM.

In the case of `CN(C(=O)Nc1ccc(F)c(Cl)c1)C1CS(=O)(=O)Cc2[nH]c(=O)c3cc(F)ccc3c21` (single isomer, unassigned) [Compound 198, 3-(3-Chloro-4-fluorophenyl)-1-(8-fluoro-3,3-dioxido-6-oxo-1,4,5,6-tetrahydro-2H-thiopyrano[3,4-c]isoquinolin-1-yl)-1-methylurea], the EC50 is 3.7 µM.

For the compound `CN(C(=O)Nc1ccc(F)c(C#N)c1)C1C[S+]([O-])Cc2[nH]c(=O)c3cc(F)ccc3c21` (single isomer, unassigned) [Compound 199, 3-(3-Cyano-4-fluorophenyl)-1-(8-fluoro-3-oxido-6-oxo-1,4,5,6-tetrahydro-2H-thiopyrano[3,4-c]isoquinolin-1-yl)-1-methylurea], the EC50 came out at 20 µM.

`CN(C(=O)Nc1ccc(F)c(C#N)c1)C1C[S+]([O-])Cc2[nH]c(=O)c3cc(F)ccc3c21` (single isomer, unassigned) [Compound 200, 3-(3-Cyano-4-fluorophenyl)-1-(8-fluoro-3-oxido-6-oxo-1,4,5,6-tetrahydro-2H-thiopyrano[3,4-c]isoquinolin-1-yl)-1-methylurea]: the EC50 was not below 25 µM.

As for `CN(C(=O)Nc1ccc(F)c(C#N)c1)C1C[S+]([O-])Cc2[nH]c(=O)c3cc(F)ccc3c21` (single isomer, unassigned) [Compound 201, 3-(3-Cyano-4-fluorophenyl)-1-(8-fluoro-3-oxido-6-oxo-1,4,5,6-tetrahydro-2H-thiopyrano[3,4-c]isoquinolin-1-yl)-1-methylurea], the EC50 is 3.6 µM.

Take `CN(C(=O)Nc1ccc(F)c(C#N)c1)C1C[S+]([O-])Cc2[nH]c(=O)c3cc(F)ccc3c21` (single isomer, unassigned) [Compound 202, 3-(3-Cyano-4-fluorophenyl)-1-(8-fluoro-3-oxido-6-oxo-1,4,5,6-tetrahydro-2H-thiopyrano[3,4-c]isoquinolin-1-yl)-1-methylurea]: the EC50 was not below 25 µM.

On to `CN(C(=O)Nc1ccc(F)c(Cl)c1)C1CS(=O)(=O)Cc2[nH]c(=O)c3cc(F)c(F)cc3c21` (single isomer, unassigned) [Compound 204, 3-(3-Chloro-4-fluorophenyl)-1-(8,9-difluoro-3,3-dioxido-6-oxo-1,4,5,6-tetrahydro-2H-thiopyrano[3,4-c]isoquinolin-1-yl)-1-methylurea], for which the EC50 was 1.4 µM.
